Non-standard residues stand in square brackets, D forms with d. Residues, ends and D or L forms follow the SMILES beside them. Bip = N[C@@H](Cc1ccc(-c2ccccc2)cc1)C(=O)O; Dip = N[C@H](C(=O)O)C(c1ccccc1)c1ccccc1; 2Nal = N[C@@H](Cc1ccc2ccccc2c1)C(=O)O
What was measured:
[1] = tested on: PC 9 cells; assay: JC-1 staining (mitochondrial membrane potential); type: cell-based; details: PC 9, 2× IC50, 120 min, serum-free RPMI, fluorescence microscopy
Experimental: PC 9 cells were seeded at 40,000 cells/well in a RPMI medium and allowed to adhere for 24 h. […] The JC-1 dye was added at a final concentration of 1 μg/mL for 45 min. PC 9 cells were observed using the inverted fluorescent microscope Zeiss equipped with a 20× oil objective lens (Carl Zeiss, Jena, Germany). The experiments were repeated three times independently.

[2] = tested on: PC 9 cell line; type: cell-based; details: for cell survival rate: 4 h; for cells killed: PC 9, 2× IC50, within 2 h, MTT
Experimental: A total of 5000 cells were incubated with Nal-P-113, Bip-P-113, and Dip-P-113 at 2× IC50 for 0.5, 1, 2, 3, and 4 h. After treatment, the MTT solution was further incubated for 3 h. Absorbance was measured at 570 nm on the microplate reader (TECAN Sunrise ELISA Reader) after the dissolution of the formazan crystal in 100 µL DMSO solution. The cell survival rate was calculated as aforementioned for cell viability assay.

[3] = tested on: PC 9 cells; assay: Cytochrome c release, ELISA of supernatant; type: cell-based; details: PC 9, 2× IC50, supernatant ELISA; for cytochrome c release, maximal value: highest over 0.5-4 h time course (Bip-P-113: at 4 h); for cytochrome c release, minimum value: lowest over 0.5-4 h time course (Bip-P-113: at 30 min)
Experimental: PC 9 cells were seeded with 10,000 cells/well in the 96-well plate and allowed to adhere for 48 h and then treated with Nal-P-113, Bip-P-113, and Dip-P-113 at 2× IC50 for 0.5, 1, 1.5, 2, and 4 h. Untreated cells were used as a control group. Supernatants were collected after centrifugation at 16,000× g for 10 min. Samples were analyzed using the Quantikine ELISA Rat/ Mouse Cytochrome c Immunoassay (R & D Systems, Minneapolis, MN, USA) according to the manufacturer’s protocol. The optical density at the wavelength of 450 nm of each well was determined using the microplate reader (TECAN Sunrise ELISA Reader).

[4] = tested on: PC 9 cells; assay: Extracellular HMGB1 release, Western blot; type: cell-based
Experimental: The PC 9 cells were seeded at the density of 25,000 cells/well and left to adhere for 48 h. Cells were treated with Nal-P-113, Bip-P-113, and Dip-P-113 at 2× IC50 for 1, 2, and 4 h. After treatment of the peptides, the supernatant and lysate of the cells were collected separately for further experiments. The supernatant was collected after centrifugation at the speed of 1400× g. The cell lysate was washed twice using PBS before the sonication of the pellet using a bio-disruptor, and the disrupted pellet was centrifuged again for 10 min under 14,000 rpm at 4 °C. The concentration of the samples was quantified using the Bradford assay. Both supernatants and cell lysate were loaded and run on the sodium dodecyl sulfate polyacrylamide gel electrophoresis (SDS-PAGE) and were then electro transferred to a polyvinylidene difluoride (PVDF) membrane (Merck-Millipore, Burlington, MA, USA) in an electro-blot system, 30 V, 400 mA, for 75 min. The membrane was incubated in blocking buffer (5% skim milk, TBST buffer) for 1 h at room temperature and washed in TBST buffer three times. The anti-HMGB1 antibody (Abcam, Cambridge, UK, ab18256) was incubated overnight at 4 °C in the dilution ratio of 1:1000. The secondary antibody of a rabbit (diluted in 1:10,000) was incubated following rinsing with PBST three times for 2 h the next day at room temperature before being developed using a luminol reagent and imaged by a detected system (ImageQuant LAS 4000 mini).

[5] = tested on: human fibroblasts (HFW); details: MTT, 100 μg/mL; cited from earlier work
Experimental: The toxicity of the peptides was determined previously by measuring cell death using MTT assays against human fibroblasts (HFW).

[6] = tested on: PC 9 cells; assay: Propidium iodide/Hoechst 33342 staining (plasma membrane integrity); type: cell-based; details: PC 9, 2× IC50, 120 min, serum-free RPMI, fluorescence microscopy
Experimental: To examine the membranolytic activities of peptides, the PI/Hoechst 33342 staining was performed in this study. The PI dye was used to stain damaged/dead cells, and Hoechst 33342 was used to specifically stain the nuclei of living cells. PC 9 cells were seeded at 20,000 cells/well in a RPMI medium and allowed to adhere for 48 h. Then, the cells were replaced with serum-free RPMI medium and then treated with 2× IC50 peptides at 37 °C for 120 min. Then, the PI and Hoechst 33342 were added at a final concentration of 1 μg/mL for 20 min. PC 9 cells were observed using the inverted fluorescent microscope Zeiss equipped with a 40× oil objective lens (Carl Zeiss, Jena, Germany). The experiments were repeated three times independently.

[7] = tested on: PC 9 cells; assay: Extracellular ATP release, luciferin-luciferase assay; type: cell-based; details: for treatment time of highest ATP release (RLU): PC 9, 2× IC50, time points 0.5, 1, 1.5, 2 h, supernatant
Experimental: PC 9 cells were seeded at the density of 10,000 cells/ well in the 96-well plate and allowed to adhere for 48 h. Cells were treated with Nal-P-113, Bip-P-113, and Dip-P-113 at 2× IC50 for 0.5, 1, 1.5, and 2 h. Untreated cells were served as the control group. After being treated for different time points (0.5, 1, 1.5, and 2 h), the supernatant of cells was analyzed using the ENLITEN ATP luciferase assay kit (Promega, Madison, WI, USA). The level of extracellular ATP chemiluminescence was measured using the Wallac VICTOR 3 Multilabel plate reader (PerkinElmer, Shelton, CT, USA).

[8] = tested on: C9 oral squamous cell carcinoma cells; type: cell-based; details: 24 h
Experimental: (§1) The three non-small cell lung cancer cell lines, H1975, PC 9, A549, and oral squamous cell carcinoma cell line OECM-1 were cultured in RPMI 1640 medium supplemented with 10% fetal bovine serum, 2 mM L-glutamine and 1% penicillin/ streptomycin. The oral cancer cell line C9 was cultured in DMEM with 10% fetal bovine serum, 2 mM L-glutamine, and 1% penicillin/ streptomycin.
(§2) The MTT assay was applied for cell viability test according to previous protocol. […] Medium treated with PBS served as control group. […] After medium was removed, 100 µL DMSO was added to dissolve the formazan crystal. Absorbance was measured at 570 nm using a microplate reader (TECAN Sunrise ELISA Reader).

[9] = tested on: OECM-1 gingival epidermoid carcinoma cells; type: cell-based; details: 24 h
Experimental: as §1, §2

[10] = tested on: PC 9 non-small cell lung cancer cells with EGFR mutation; type: cell-based; details: 24 h
Experimental: as §1, §2

[11] = tested on: H1975 non-small cell lung carcinoma cells; type: cell-based; details: 24 h
Experimental: as §1, §2

[12] = tested on: A549 adenocarcinomic alveolar basal epithelial cells; type: cell-based; details: 24 h
Experimental: as §1, §2

Row | Compound | mitochondrial membrane potential (JC-1) [1] | cell survival rate [2] | cells killed [2] | cytochrome c release, maximal value [3] | cytochrome c release, minimum value [3] | HMGB1 protein in supernatant ([4]; PC 9, 2× IC50, 1 h treatment) | HMGB1 protein in supernatant ([4]; PC 9, 2× IC50, after 2 and 4 h) | cell death [5] | plasma membrane integrity (PI entry) [6] | ATP release compared among the peptides ([7]; PC 9, 2× IC50, at the 0.5 h peak) | treatment time of highest ATP release (RLU) [7] [h] | IC50 [8] [µM] | IC50 [9] [µM] | IC50 [10] [µM] | IC50 [11] [µM] | IC50 [12] [µM]
1 | CC(=O)N[C@@H](C)C(=O)N[C@@H](CCCCN)C(=O)N[C@@H](CCCNC(=N)N)C(=O)N[C@@H](Cc1ccc(-c2ccccc2)cc1)C(=O)N[C@@H](Cc1ccc(-c2ccccc2)cc1)C(=O)NCC(=O)N[C@@H](Cc1ccc(O)cc1)C(=O)N[C@@H](CCCCN)C(=O)N[C@@H](CCCNC(=N)N)C(=O)N[C@@H](CCCCN)C(=O)N[C@@H](Cc1ccccc1)C(=O)N[C@@H](Cc1ccc(-c2ccccc2)cc1)C(N)=O [Bip-P-113] (Ac-AKR[Bip][Bip]GYKRKF[Bip]-NH2) | induced changes of the mitochondrial membrane potential | below 50% | more than 80% | ~15 ng/mL | 3 ng/mL | No HMGB1 protein was observed | can hardly be detected | less than 10% | cause damage to the plasma membrane integrity | lowest ATP release | 0.5 | 42 | 42.5 | 64.2 | 63.6 | 48.4
2 | CC(=O)N[C@@H](C)C(=O)N[C@@H](CCCCN)C(=O)N[C@@H](CCCNC(=N)N)C(=O)N[C@@H](Cc1ccc2ccccc2c1)C(=O)N[C@@H](Cc1ccc2ccccc2c1)C(=O)NCC(=O)N[C@@H](Cc1ccc(O)cc1)C(=O)N[C@@H](CCCCN)C(=O)N[C@@H](CCCNC(=N)N)C(=O)N[C@@H](CCCCN)C(=O)N[C@@H](Cc1ccccc1)C(=O)N[C@@H](Cc1ccc2ccccc2c1)C(N)=O [Nal-P-113] (Ac-AKR[2Nal][2Nal]GYKRKF[2Nal]-NH2) | induced changes of the mitochondrial membrane potential | below 50% | more than 80% | around 3.5 ng/mL | lower than 2 ng/mL | No HMGB1 protein was observed | can clearly be seen | less than 10% | cause damage to the plasma membrane integrity | – | 0.5 | 21.4 | 25.9 | 28.1 | 58.3 | 38.2
3 | CC(=O)N[C@@H](C)C(=O)N[C@@H](CCCCN)C(=O)N[C@@H](CCCNC(=N)N)C(=O)N[C@@H](Cc1c[nH]cn1)C(=O)N[C@@H](Cc1c[nH]cn1)C(=O)NCC(=O)N[C@@H](Cc1ccc(O)cc1)C(=O)N[C@@H](CCCCN)C(=O)N[C@@H](CCCNC(=N)N)C(=O)N[C@@H](CCCCN)C(=O)N[C@@H](Cc1ccccc1)C(=O)N[C@@H](Cc1c[nH]cn1)C(N)=O [P-113, reference compound] (Ac-AKRHHGYKRKFH-NH2; N-terminus and C-terminus assumed) | – | – | – | – | – | – | – | – | – | – | – | – | – | > 200 | – | –
4 | CC(=O)N[C@@H](C)C(=O)N[C@@H](CCCCN)C(=O)N[C@@H](CCCNC(=N)N)C(=O)N[C@@H](Cc1ccccc1)C(=O)N[C@@H](Cc1ccccc1)C(=O)NCC(=O)N[C@@H](Cc1ccc(O)cc1)C(=O)N[C@@H](CCCCN)C(=O)N[C@@H](CCCNC(=N)N)C(=O)N[C@@H](CCCCN)C(=O)N[C@@H](Cc1ccccc1)C(=O)N[C@@H](Cc1ccccc1)C(N)=O [Phe-P-113] (Ac-AKRFFGYKRKFF-NH2) | – | – | – | – | – | – | – | – | – | – | – | 80.5 | 120 | 173 | – | 99.1
5 | CC(=O)N[C@@H](C)C(=O)N[C@@H](CCCCN)C(=O)N[C@@H](CCCNC(=N)N)C(=O)N[C@H](C(=O)N[C@H](C(=O)NCC(=O)N[C@@H](Cc1ccc(O)cc1)C(=O)N[C@@H](CCCCN)C(=O)N[C@@H](CCCNC(=N)N)C(=O)N[C@@H](CCCCN)C(=O)N[C@@H](Cc1ccccc1)C(=O)N[C@H](C(N)=O)C(c1ccccc1)c1ccccc1)C(c1ccccc1)c1ccccc1)C(c1ccccc1)c1ccccc1 [Dip-P-113] (Ac-AKR[Dip][Dip]GYKRKF[Dip]-NH2) | induced changes of the mitochondrial membrane potential | around 60% | – | around 3.5 ng/mL | lower than 2 ng/mL | No HMGB1 protein was observed | can clearly be seen | less than 10% | cause damage to the plasma membrane integrity | – | 0.5 | 67.9 | 62.9 | 71.5 | – | 96.4

— PMC9138567, “Strategy to Enhance Anticancer Activity and Induced Immunogenic Cell Death of Antimicrobial Peptides by Using Non-Nature Amino Acid Substitutions” (Biomedicines, 2022)
